Test results published in US8916702B2 (priority 2012, dated 2014).
Where two headings read alike, the source gives them in different places.

Tested on: HCV pseudoparticles (genotype 1a HCV E1 and E2 envelope, H77C isolate)
Test: microbe, parasite or virus in culture
Format: cell-based
Conditions: Hepatitis C virus
[1] = Huh-7, read-out: Activity (EC50 class), HCV pseudoparticles (genotype 1a, H77C) in Huh7 cells, EC50 expressed as class A/B
[2] = Huh-7, 48 h, read-out: Activity (EC50 class), HCV pseudoparticle infection of Huh7 cells, luciferase 2 days after infection, EC50 expressed as class A/B
[3] = Huh-7, 48 h, read-out: Activity (EC50 class), HCV pseudoparticles, Huh7 cells, luciferase 2 days after infection, average of duplicates
[4] = Huh-7, 48 h, HCV pseudoparticles (genotype 1a, H77C) in Huh7 cells, average of duplicate, luciferase 2 days after infection

| SMILES | EC50 [1] | other results |
| --- | --- | --- |
| COC(=O)[C@H](CNC(=O)C(=O)Nc1ccc(Cn2cncn2)cc1)NC(=O)c1ccc(Nc2nc(NC3(c4ccc(Cl)cc4)CC3)nc(OCC(F)(F)F)n2)cc1 [Compound 3182] | 0.01 to 10 nM | – |
| COC(=O)[C@H](CCNC(=O)C(=O)NCCc1cccc(F)c1)NC(=O)c1ccc(Nc2nc(NC3(c4ccc(Cl)cc4)CC3)nc(OCC(F)(F)F)n2)cc1 [Compound 1312] | – | EC50 [2]: 0.01 to 10 nM |
| COc1ccc2nc(NC(=O)C(=O)NCC(C)(C)CNC(=O)c3ccc(Nc4nc(NC5(c6ccc(Cl)cc6)CC5)nc(OCC(F)(F)F)n4)cc3)sc2n1 [Compound 3803] | – | EC50 [3]: 0.01 to 10 nM |
| CC(C)(CNC(=O)C(=O)Nc1nc2c(O)cccc2s1)CNC(=O)c1ccc(Nc2nc(NC3(c4ccc(Cl)cc4)CC3)nc(OCC(F)(F)F)n2)cc1 [Compound 3819] | – | EC50 [3]: 0.01 to 10 nM |
| Cc1cc(NC(=O)C(=O)NCC(C)(C)CNC(=O)c2ccc(Nc3nc(NC4(c5ccc(Cl)cc5)CC4)nc(OCC(F)(F)F)n3)cc2)ccc1F [Compound 3060] | 0.01 to 10 nM | – |
| O=C(NC[C@H](NC(=O)c1ccc(Nc2nc(NC3(c4ccc(Cl)cc4)CC3)nc(OCC(F)(F)F)n2)cc1)C(=O)O)C(=O)Nc1ccc(-c2ccncc2)cc1 [Compound 3266] | 0.01 to 10 nM | – |
| O=C(NC/C(=N/C(=O)c1ccc(Nc2nc(NC3(c4ccc(Cl)cc4)CC3)nc(OCC(F)(F)F)n2)cc1)C(=O)O)C(=O)Nc1ccc(Cc2ccccc2)cc1 [Compound 3159] | 0.01 to 10 nM | – |
| Cc1ccc(NC(=O)C(=O)NCCCNC(=O)c2ccc(Nc3nc(NC4(c5ccc(Cl)cc5)CC4)nc(OCC(F)(F)F)n3)cc2)cc1 [Compound 3358] | 0.01 to 10 nM | EC50 [4]: 0.034 nM |
| CC(C)(CNC(=O)C(=O)Nc1ccc(-n2cncn2)cc1)CNC(=O)c1ccc(Nc2nc(NC3(c4ccc(Cl)cc4)CC3)nc(OCC(F)(F)F)n2)cc1 [Compound 3053] | 0.01 to 10 nM | – |
| CN(CCCNC(=O)c1ccc(Nc2nc(NC3(c4ccc(Cl)cc4)CC3)nc(OCC(F)(F)F)n2)cc1)C(=O)C(=O)Nc1cccc(F)c1 [Compound 3443] | 0.01 to 10 nM | – |
| COC(=O)[C@@H](CCNC(=O)C(=O)Nc1ccc(Oc2cccnc2)nc1)NC(=O)c1ccc(Nc2nc(NC3(c4ccc(Cl)cc4)CC3)nc(OCC(F)(F)F)n2)cc1 [Compound 3582] | 0.01 to 10 nM | EC50 [4]: 8.95 nM |
| CN(CCCN(C)C(=O)c1ccc(Nc2nc(NC3(c4ccc(Cl)cc4)CC3)nc(OCC(F)(F)F)n2)cc1)C(=O)C(=O)NCc1ccc(F)cc1 [Compound 3413] | 10 to 1000 nM | – |
| COC(=O)[C@H](CCNC(=O)C(=O)Nc1ccc(Cc2ccccc2)cc1)NC(=O)c1ccc(Nc2nc(NC3(c4ccc(Cl)cc4)CC3)nc(OCC(F)(F)F)n2)cc1 [Compound 3120] | 0.01 to 10 nM | – |
| COC(=O)[C@H](CCNC(=O)C(=O)Nc1cccc(-c2ccccc2)c1)NC(=O)c1ccc(Nc2nc(NC3(c4ccc(Cl)cc4)CC3)nc(OCC(F)(F)F)n2)cc1 [Compound 1522] | – | EC50 (Huh-7, 48 h, HCV pseudoparticle infection of Huh7 cells, luciferase 2 days after infection, average of duplicates): 0.1 nM; EC50 [2]: 0.01 to 10 nM |
| COC(=O)[C@H](CCNC(=O)C(=O)NCCc1ccccc1F)NC(=O)c1ccc(Nc2nc(NC3(c4ccc(Cl)cc4)CC3)nc(OCC(F)(F)F)n2)cc1 [Compound 1313] | – | EC50 [2]: 0.01 to 10 nM |
| O=C(Nc1ccccc1)C(=O)N(CCO)CCCNC(=O)c1ccc(Nc2nc(NC3(c4ccc(Cl)cc4)CC3)nc(OCC(F)(F)F)n2)cc1 [Compound 3508] | 0.01 to 10 nM | – |
| CC(C)OC(=O)c1cccc(-c2ccc(NC(=O)C(=O)NCC(C)(C)CNC(=O)c3ccc(Nc4nc(NC5(c6ccc(Cl)cc6)CC5)nc(OCC(F)(F)F)n4)cc3)cc2)c1 [Compound 1491] | – | EC50 [2]: 0.01 to 10 nM |
| CN(CCCNC(=O)c1ccc(Nc2nc(NC3(c4ccc(Cl)cc4)CC3)nc(OCC(F)(F)F)n2)cc1)C(=O)C(=O)Nc1ccc(F)cc1 [Compound 3448] | 0.01 to 10 nM | EC50 [4]: 0.059 nM |
| COC(=O)[C@H](CCNC(=O)C(=O)Nc1cnn(C)c1)NC(=O)c1ccc(Nc2nc(NC3(c4ccc(Cl)cc4)CC3)nc(OCC(F)(F)F)n2)cc1 [Compound 1226] | – | EC50 [2]: 0.01 to 10 nM |
| CC(C)(CNC(=O)C(=O)Nc1ccc(/C=C/c2ccccc2)cc1)CNC(=O)c1ccc(Nc2nc(NC3(c4ccc(Cl)cc4)CC3)nc(OCC(F)(F)F)n2)cc1F [Compound 3564] | 0.01 to 10 nM | – |
